Assay results: US20150105252A1, “SUBSTITUTED PYRAZOLES AS HERBICIDES” (E I DU PONT DE NEMOURS AND COMPANY, priority 2013, published 2015)

Key:
corn = assay: Test F postemergence; format: in vivo, Zea mays; settings: scale 0 to 100
Description: (§1) Seeds of plant species selected from corn (Zea mays), soybean (Glycine max), velvetleaf (Abutilon theophrasti), lambsquarters (Chenopodium album), wild poinsettia (Euphorbia heterophylla), pigweed, palmer (palmer pigweed, Amaranthus palmeri), common waterhemp (Amaranthus rudis), surinam grass (Brachiaria decumbens), large crabgrass (Digitaria sanguinalis), crabgrass, Brazil (Brazilian crabgrass, Digitaria horizontalis), fall panicum (Panicum dichotomiflorum), giant foxtail (Setaria faberii), green foxtail (Setaria viridis), goosegrass (Eleusine indica), johnsongrass (Sorghum halepense), common ragweed (Ambrosia elation), barnyardgrass (Echinochloa crus-galli), southern sandbur (Cenchrus echinatus), arrowleaf sida (Sida rhombifolia), Italian ryegrass (Lolium multiflorum), dayflower, VA (Virginia (VA) dayflower, Commelina virginica), field bindweed (Convolvulus arvensis), cocklebur (common cocklebur, Xanthium strumarium), morningglory (Ipomoea coccinea), nightshade (eastern black nightshade, Solanum ptycanthum), kochia (Kochia scoparia), yellow nutsedge (Cyperus esculentus), and hairy beggarticks (Bidens pilosa), were planted into a silt loam soil and treated preemergence with test chemicals formulated in a non-phytotoxic solvent mixture which included a surfactant.
(§2) At the same time, plants from these crop and weed species and also horseweed (Canada horseweed, Conyza canadensis), smartweed (ladysthumb smartweed, Polygonum persicaria), waterhemp_RES1, (ALS & Triazine resistant common waterhemp, Amaranthus rudis), and waterhemp_RES2, (ALS & HPPD resistant common waterhemp, Amaranthus rudis) were treated with postemergence applications of test chemicals formulated in the same manner. Plants ranged in height from 2 to 18 cm for postemergence treatments (1- to 4-leaf stage). Treated plants and controls were maintained in a greenhouse for 14 to 21 days, after which time all species were compared to controls and visually evaluated. Plant response ratings, summarized in Table F, are based on a scale of 0 to 100 where 0 is no effect and 100 is complete control. A dash (-) response means no test result.

barnyardgrass = assay: Test F postemergence; format: in vivo, Echinochloa crus-galli; settings: scale 0 to 100
Description: as §1, §2

mustard, black = assay: Test E preemergence; format: in vivo, Brassica nigra; settings: 21 days, scale 0 to 100
Description: (§3) Seeds of plant species selected from bermudagrass (Cynodon dactylon), Surinam grass (Brachiaria decumbens), crabgrass, large (large crabgrass, Digitaria sanguinalis), crabgrass, naked (naked crabgrass, Digitaria nuda), foxtail, green (green foxtail, Setaria viridis), johnsongrass (Sorghum halepense), kochia (Kochia scoparia), morningglory (pitted morningglory, Ipomoea lacunosa), nutsedge, purple (purple nutsedge, Cyperus rotundus), ragweed (common ragweed, Ambrosia elation), mustard, black (black mustard, Brassica nigra), guineagrass (Panicum maximum), dallisgrass (Paspalum dilatatum), barnyardgrass (Echinochloa crus-galli), sandbur (southern sandbur, Cenchrus echinatus), sowthistle (common sowthistle, Sonchus oleraceous), ryegrass, Italian (Italian ryegrass, Lolium multiflorum), signalgrass (broadleaf signalgrass, Brachiaria platyphylla), dayflower, VA (Virginia (VA) dayflower, Commelina virginica), bluegrass (annual bluegrass, Poa annua), quackgrass (Elytrigia repens), mallow (common mallow, Malva sylvestris), buckwheat, wild (wild buckwheat, Polygonum convolvulus), leafy spurge (Euphorbia esula), common chickweed (Stellaria media), wild poinsettia (Euphorbia heterophylla), pigweed, palmer (palmer pigweed, Amaranthus palmeri), and pigweed (redroot pigweed, Amaranthus retroflexus) were planted into a blend of loam soil and sand and treated preemergence with test chemicals formulated in a non-phytotoxic solvent mixture which included a surfactant.
(§4) Treated plants and controls were maintained in a greenhouse for 21 days, after which time all species were compared to controls and visually evaluated. Plant response ratings, summarized in Table E, are based on a scale of 0 to 100 where 0 is no effect and 100 is complete control. A dash (-) response means no test result.

pigweed, palmer = assay: Test F postemergence; format: in vivo, Amaranthus palmeri; settings: scale 0 to 100
Description: as §1, §2

sandbur = assay: Test E preemergence; format: in vivo, Cenchrus echinatus; settings: 21 days, scale 0 to 100
Description: as §3, §4

leafy spurge = assay: Test E preemergence; format: in vivo, Euphorbia esula; settings: 21 days, scale 0 to 100
Description: as §3, §4

southern sandbur = assay: Test F postemergence; format: in vivo, Cenchrus echinatus; settings: scale 0 to 100
Description: as §1, §2

sedge, umbrella = assay: Test C flooded paddy test; format: in vivo, Cyperus difformis; settings: Flood
In short: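 Greenhouse pots flooded to 3 cm above soil at time of treatment received compound via the water, which stayed at that level.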

[1] = 31 g ai/ha, scale 0 to 100 (0 no effect, 100 complete control)
[2] = 62 g ai/ha, scale 0 to 100 (0 no effect, 100 complete control)
[3] = 125 g ai/ha, scale 0 to 100 (0 no effect, 100 complete control)

SMILES | Plant response rating, Corn (corn; Postemergence, 31 g ai/ha) | Plant response rating, Corn (corn; Postemergence, 125 g ai/ha) | Plant response rating, Corn (corn; Postemergence, 250 g ai/ha) | Plant response rating, Corn (corn; postemergence, 62 g ai/ha) | Plant response rating, Barnyardgrass (barnyardgrass; Postemergence, 31 g ai/ha) | Plant response rating, Barnyardgrass (barnyardgrass; Postemergence, 125 g ai/ha) | Plant response rating, Barnyardgrass (barnyardgrass; Postemergence, 250 g ai/ha) | Plant response rating, Barnyardgrass (barnyardgrass; postemergence, 62 g ai/ha) | Plant response rating, Barnyardgrass (barnyardgrass; postemergence, 500 g ai/ha) | Plant response rating, Mustard, Black (mustard, black; 16 g ai/ha) | Plant response rating, Mustard, Black (mustard, black; 31 g ai/ha) | Plant response rating, Mustard, Black (mustard, black; 62 g ai/ha) | Plant response rating, Sandbur (sandbur; 16 g ai/ha) | Plant response rating, Sandbur (sandbur; 31 g ai/ha) | Plant response rating, Sandbur (sandbur; 62 g ai/ha) | Plant response rating, Leafy Spurge (leafy spurge; 16 g ai/ha) | Plant response rating, Leafy Spurge (leafy spurge; 31 g ai/ha) | Plant response rating, Leafy Spurge (leafy spurge; 62 g ai/ha) | Plant response rating, Sedge, Umbrella (sedge, umbrella; [1]) | Plant response rating, Sedge, Umbrella (sedge, umbrella; [2]) | also measured
CCc1cc(C(=O)NCC(F)(F)F)nn1Cc1ccnc(C(F)(F)F)c1 [Compound 78, 5-ethyl-N-(2,2,2-trifluoroethyl)-1-[[(2-trifluoromethyl)-4-pyridinyl]methyl]-1H-pyrazole-3-carboxamide] | 15 | 50 | 85 | 20 | 5 | 40 | 70 | 30 | 90 | 70 | 100 | 100 | 40 | 50 | 90 | 80 | 100 | 100 |  |  | Plant response rating, Mustard, Black (mustard, black; 125 g ai/ha): 100; Plant response rating, Mustard, Black (mustard, black; 250 g ai/ha): 100; Plant response rating, Pigweed, Palmer (pigweed, palmer; Postemergence, 31 g ai/ha): 50; Plant response rating, Pigweed, Palmer (pigweed, palmer; Postemergence, 125 g ai/ha): 70; Plant response rating, Pigweed, Palmer (pigweed, palmer; Postemergence, 250 g ai/ha): 90; Plant response rating, Pigweed, Palmer (pigweed, palmer; postemergence, 62 g ai/ha): 60; Plant response rating, Pigweed, Palmer (pigweed, palmer; postemergence, 500 g ai/ha): 98; Plant response rating, Sandbur (sandbur; 125 g ai/ha): 95; Plant response rating, Sandbur (sandbur; 250 g ai/ha): 100; Plant response rating, Leafy Spurge (leafy spurge; 125 g ai/ha): 100; Plant response rating, Leafy Spurge (leafy spurge; 250 g ai/ha): 100; Plant response rating, Southern Sandbur (southern sandbur; Postemergence, 31 g ai/ha): 0; Plant response rating, Southern Sandbur (southern sandbur; Postemergence, 125 g ai/ha): 30; Plant response rating, Southern Sandbur (southern sandbur; Postemergence, 250 g ai/ha): 80; Plant response rating, Southern Sandbur (southern sandbur; postemergence, 62 g ai/ha): 10; Plant response rating, Southern Sandbur (southern sandbur; postemergence, 500 g ai/ha): 90
CCc1cc(C(=O)NC(C)C)nn1Cc1ccnc(C(F)(F)F)c1 [Compound 103] |  |  |  |  |  |  |  |  |  | 100 | 100 | 100 | 40 | 70 | 100 | 75 | 95 | 100 |  |  | Plant response rating, Mustard, Black (mustard, black; 125 g ai/ha): 100; Plant response rating, Mustard, Black (mustard, black; 250 g ai/ha): 100; Plant response rating, Sandbur (sandbur; 125 g ai/ha): 100; Plant response rating, Sandbur (sandbur; 250 g ai/ha): 100; Plant response rating, Leafy Spurge (leafy spurge; 125 g ai/ha): 100; Plant response rating, Leafy Spurge (leafy spurge; 250 g ai/ha): 100
CCOc1cc(C(=O)NCC(F)(F)F)nn1Cc1ccnc(C(F)(F)F)c1 [Compound 104] | 10 | 50 | 90 | 25 | 0 | 30 | 80 | 10 | 95 | 100 | 100 | 100 | 70 | 90 | 100 | 100 | 98 | 100 |  |  | Plant response rating, Mustard, Black (mustard, black; 125 g ai/ha): 100; Plant response rating, Mustard, Black (mustard, black; 250 g ai/ha): 100; Plant response rating, Pigweed, Palmer (pigweed, palmer; Postemergence, 31 g ai/ha): 60; Plant response rating, Pigweed, Palmer (pigweed, palmer; Postemergence, 125 g ai/ha): 70; Plant response rating, Pigweed, Palmer (pigweed, palmer; Postemergence, 250 g ai/ha): 75; Plant response rating, Pigweed, Palmer (pigweed, palmer; postemergence, 62 g ai/ha): 80; Plant response rating, Pigweed, Palmer (pigweed, palmer; postemergence, 500 g ai/ha): 95; Plant response rating, Sandbur (sandbur; 125 g ai/ha): 98; Plant response rating, Sandbur (sandbur; 250 g ai/ha): 100; Plant response rating, Leafy Spurge (leafy spurge; 125 g ai/ha): 98; Plant response rating, Leafy Spurge (leafy spurge; 250 g ai/ha): 100; Plant response rating, Southern Sandbur (southern sandbur; Postemergence, 31 g ai/ha): 10; Plant response rating, Southern Sandbur (southern sandbur; Postemergence, 125 g ai/ha): 45; Plant response rating, Southern Sandbur (southern sandbur; Postemergence, 250 g ai/ha): 90; Plant response rating, Southern Sandbur (southern sandbur; postemergence, 62 g ai/ha): 30; Plant response rating, Southern Sandbur (southern sandbur; postemergence, 500 g ai/ha): 90
CCCNC(=O)c1cc(CCCl)n(Cc2ccnc(C(F)(F)F)c2)n1 [Compound 145] |  |  |  |  |  |  |  |  |  |  |  |  |  |  |  |  |  |  | 100 | 100 | Plant response rating, Sedge, Umbrella (sedge, umbrella; 125 g ai/ha, scale 0 to 100): 100; Plant response rating, Sedge, Umbrella (sedge, umbrella; 250 g ai/ha, scale 0 to 100): 100
CCOc1cc(C(=O)NC(C)C)nn1Cc1ccnc(C(F)(F)F)c1 [Compound 188] | 10 | 60 | 95 | 20 | 0 | 50 | 60 | 20 | 95 |  |  |  |  |  |  |  |  |  |  |  | Plant response rating, Pigweed, Palmer (pigweed, palmer; Postemergence, 31 g ai/ha): 50; Plant response rating, Pigweed, Palmer (pigweed, palmer; Postemergence, 125 g ai/ha): 50; Plant response rating, Pigweed, Palmer (pigweed, palmer; Postemergence, 250 g ai/ha): 60; Plant response rating, Pigweed, Palmer (pigweed, palmer; postemergence, 62 g ai/ha): 50; Plant response rating, Pigweed, Palmer (pigweed, palmer; postemergence, 500 g ai/ha): 70; Plant response rating, Southern Sandbur (southern sandbur; Postemergence, 31 g ai/ha): 0; Plant response rating, Southern Sandbur (southern sandbur; Postemergence, 125 g ai/ha): 50; Plant response rating, Southern Sandbur (southern sandbur; Postemergence, 250 g ai/ha): 70; Plant response rating, Southern Sandbur (southern sandbur; postemergence, 62 g ai/ha): 20; Plant response rating, Southern Sandbur (southern sandbur; postemergence, 500 g ai/ha): 90
CCOc1cc(C(=O)NC2CC2)nn1Cc1ccnc(C(F)(F)F)c1 [Compound 189] |  |  |  |  |  |  |  |  |  | 100 | 100 | 100 | 0 | 20 | 90 | 100 | 100 | 100 |  |  | Plant response rating, Mustard, Black (mustard, black; 4 g ai/ha): 95; Plant response rating, Mustard, Black (mustard, black; 8 g ai/ha): 98; Plant response rating, Sandbur (sandbur; 4 g ai/ha): 0; Plant response rating, Sandbur (sandbur; 8 g ai/ha): 0; Plant response rating, Leafy Spurge (leafy spurge; 4 g ai/ha): 35; Plant response rating, Leafy Spurge (leafy spurge; 8 g ai/ha): 75
CCONC(=O)c1cc(OCC)n(Cc2ccnc(C(F)(F)F)c2)n1 [Compound 195] |  |  |  |  |  |  |  |  |  |  |  |  |  |  |  |  |  |  | 0 | 75 | Plant response rating, Sedge, Umbrella (sedge, umbrella; [3]): 80; Plant response rating, Sedge, Umbrella (sedge, umbrella; 250 g ai/ha, scale 0 to 100): 85
CCc1cc(C(=O)NC2CC2)nn1Cc1ccnc(OCC(F)(F)F)c1 [Compound 200] |  |  |  |  |  |  |  |  |  |  |  |  |  |  |  |  |  |  | 50 | 80 | Plant response rating, Sedge, Umbrella (sedge, umbrella; [3]): 100; Plant response rating, Sedge, Umbrella (sedge, umbrella; 250 g ai/ha, scale 0 to 100): 100
CCc1cc(C(=O)NC2CC2)nn1Cc1cc(C(F)(F)C(F)(F)F)nn1C [Compound 226] |  |  |  |  |  |  |  |  |  |  |  |  |  |  |  |  |  |  | 20 | 25 | Plant response rating, Sedge, Umbrella (sedge, umbrella; [3]): 85
